Legend:
[1] = Spacer leaving group cyclization release rate in pH 7.4 phosphate buffer (Example 39); conditions: 2.18 mM, 50 mM pH 7.4 phosphate buffer, 20° C.
trypsin = molecular target: T1, trypsin (Bos taurus, UniProt P00760); assay: In vitro trypsin-mediated cleavage of hydrocodone prodrugs (Example 44); format: biochemical, bovine; conditions: conditions as Example 39
T1 construct: purchased Sigma-Aldrich T8003; host or cells: bovine pancreas
T1 sequence (P00760 24-246): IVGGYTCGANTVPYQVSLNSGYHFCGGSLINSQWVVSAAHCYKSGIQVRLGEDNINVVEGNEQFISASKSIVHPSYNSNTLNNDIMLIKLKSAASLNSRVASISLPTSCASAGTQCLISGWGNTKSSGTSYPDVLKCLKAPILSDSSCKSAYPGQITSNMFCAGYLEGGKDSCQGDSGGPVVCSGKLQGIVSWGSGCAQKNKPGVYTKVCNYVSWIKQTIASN
Experimental: The reactions were conducted at 37° C. for 24 h. Samples were collected at specified time points, transferred into 0.5% formic acid in acetonitrile to stop trypsin activity, and stored at less than −70° C. until analysis by LC-MS/MS.

[2] = Pharmacokinetics following PO administration of Compound KC-55 to rats (Example 48)
[3] = Oral administration of oxycodone prodrugs co-dosed with trypsin inhibitor Compound 109 to rats (Example 40); format: in vivo; conditions: co-dosed PO with KC-12 or KC-17 to rats
[4] = Oral administration of hydrocodone prodrugs co-dosed with Compound 109 to rats (Example 46); conditions: co-dosed PO with KC-40 or KC-50 to rats

COc1ccc2c3c1O[C@H]1C(OC(=O)N4CCCCC4CN)=CC[C@@]4(O)[C@@H](C2)N(C)CC[C@]314 (single isomer, unassigned; peak b) [KC-11 peak B, N-(oxycodone-6-enol-carbonyl)piperidine-2-methylamine]
half-life (cyclization; compound disappearance) [1]: 0.876 ± 0.012 h

COc1ccc2c3c1O[C@H]1C(OC(=O)N4CCCCC4CN)=CC[C@@]4(O)[C@@H](C2)N(C)CC[C@]314 (single isomer, unassigned; peak a) [KC-11 peak A, N-(oxycodone-6-enol-carbonyl)piperidine-2-methylamine]
half-life (cyclization; compound disappearance) [1]: 1.30 ± 0.038 h

N-(hydrocodone-6-enol-carbonyl)-(2-methylamino)piperidine-4-carboxylate]-L-arginine-glycine-acetate [Compound KC-40]
HC formation rate (trypsin): 0.003 ± 0.00 μmol/h/BAEE U

COc1ccc2c3c1O[C@H]1C(OC(=O)N4CCC(C(=O)O)CC4CNC(=O)[C@H](CCCNC(=N)N)NC(=O)CNC(C)=O)=CC[C@@]4(O)[C@@H](C2)N(C)CC[C@]314 (stereo partly drawn) [Compound KC-55, N-(oxycodone-6-enol-carbonyl)-[(2-methylamino)-piperidine-4-carboxylate]-L-arginine-glycine-acetate]
release of oxycodone on oral administration ([2]; PO to rats): leads to release of oxycodone

N=C(N)c1ccc2cc(OC(=O)c3ccc(N=C(N)N)cc3)ccc2c1 [Compound 109, 6-carbamimidoylnaphthalen-2-yl 4-(diaminomethyleneamino)benzoate]
effect of trypsin inhibitor on release of oxycodone [3]: attenuate release of oxycodone by prodrugs of the embodiments
effect of trypsin inhibitor on release of hydrocodone [4]: attenuate release of hydrocodone by prodrugs of the embodiments

COc1ccc2c3c1O[C@H]1C(=O)CC[C@@]4(O)[C@@H](C2)N(C)CC[C@]314 [Oxycodone, oxycodone, reference compound]
Cmax ([2]; male, Sprague Dawley, rat, plasma, po, 10 mg/kg): 14.7 ± 6.5 ng/mL
